Reference: patent US20260138969A1 (Korea Research Institute of Chemical Technology, priority 2023, published 2026)

Columns and labels:
[1] = test system: α-Syn transgenic Parkinson's disease mouse model; assay: α-Syn transgenic Parkinson's disease mouse model: TH staining of striatum; assay type: in vivo; settings: 9 months of age; Example 3 2/10/50 mg/kg, Example 2 2 mg/kg PO QD; vs G2
Description: (§1) The test drug was administered once daily (QD) via oral administration (PO) with a solution of 5 ml/kg for 5 months from 4 months to 9 months of age. Motor behavior tests (beam test) and neurological scores (modified Irwin test) were performed at 4 months (before administration), 7 months, and 9 months. After the final behavioral test, tissue samples were taken. Weight was measured on the same day once a week from 4 months of age until the end of the study.
At 9 months of age, the measurement period ended, the mice were anesthetized, and then the experiment was terminated by cardiac puncture according to IACUC guidelines. Mice were perfused transcardially with 0.9% saline for tissue staining, followed by 4% paraformaldehyde until the mice were fixed. The brains were isolated and immobilized by soaking in 4% paraformaldehyde at 4° C. for 24 hours, followed by 30% sucrose added to PBS containing 0.02% sodium azide and stored at 4° C. for 3 days. Brain samples embedded in OCT compounds were sectioned to a thickness of 20 μm using Leica CM1950 (Leica Microsystems, Germany). The sections were stored at 4° C. in a preservation solution until they were stained by antibodies. […]
TH-stained brain tissue was imaged using an immunofluorescence microscope (Olympus, BZ21) in Olympus. The fluorescence intensity of the striatum was analyzed using Image J software.

[2] = test system: α-Syn transgenic Parkinson's disease mouse model; assay: α-Syn transgenic Parkinson's disease mouse model: neurological score (modified Irwin test); assay type: in vivo; settings: Example 3 2/10/50 mg/kg, Example 2 2 mg/kg PO QD 5 months; vs TG+carrier (G2)
Description: as §1
Scores were recorded by direct observation of mice in cages for neurological behavioral disorders, except for startle reflex, tail pinch, and righting reflex. To test the startle reflex, a small remote control was used to make loud noises and check behaviors such as jumping, stopping, and blinking quickly. For the […] reflex, each mouse was removed from the cage and placed with its back facing the floor so that the mouse could correct its posture on its own. The tail pinch reflex was tested by gently squeezing the tip of the tail with forceps.
A score of 0 was given if there were normal or no abnormal features such as motor activity, 1 point if mild abnormalities were observed, and 2 to 3 points were given if serious abnormalities were observed. The scores for all observed behaviors for each mouse were added, and the average of the added scores for each group was calculated.

[3] = test system: PC12 cells; assay: Neuronal protective efficacy against MPP+ (MTT); assay type: cell-based; settings: Rattus norvegicus, PC-12, MPP 2 mM, Control = 100, read-out: cell viability (AVE); for viability at 0.1 µM: compound 0.1 μM; for viability at 0.3 µM: compound 0.3 μM; for viability at 1 µM: compound 1 μM
Description: The neuronal toxicity substances 6-OHDA (6-hydroxydopamine hydrobromide) and MPP+ (1-methyl-4-phenylpyridinium) were purchased from Sigma-Aldrich (Saint Louis, MO, USA) and made into 100 mM DMSO stock. PC12 cells were seeded on 96-well plates with 4 pieces of 1×10 per well and incubated for one day. The cells were pretreated with each concentration of embodied compound for 1 h. Subsequently, 40 μM 6-OHDA and 2 mM MPP^+ were added and incubated for 24 hours, respectively. Subsequently, cell viability was measured using MTT (Invitrogen, MA, USA).

[4] = test system: SH-SY5Y cells; assay: Cytoprotective effects in MPP+-induced human neurons (CCK-8); assay type: cell-based; settings: MPP+ 5 mM induced cytotoxicity, cell viability by CCK-8
Description: SH-SY5Y cells were purchased from ATCC and cultured at 37° C. and 5% CO2 in RPMI medium containing 10% FBS and 1% penicillin and streptomycin. MPP+ was purchased from Sigma Aldrich and treated with 5 mM to induce cytotoxicity.

[5] = test system: MPTP-induced PD mouse model; assay: MPTP-induced PD mouse model: TH staining of striatum and substantia nigra; assay type: in vivo; settings: for TH levels in the striatum / TH levels in the substantia nigra: vs control group (G1); for TH levels in substantia nigra / TH levels in striatum: PO QD Day 1-7, Example 3 2/10/50 mg/kg, Example 2 50 mg/kg, vs MPTP group G2; for TH levels in striatum: Nilotinib 40 mg/kg
Description: Mice at 7 weeks of age were divided into 7 groups as shown in Table 9 below to generate an acute MPTP model and proceed with drug administration: control group+vehicle (G1), MPTP+vehicle (G2), MPTP+Nilotinib 40 mg/kg (G3), MPTP+Example 3 2 mg/kg (G4), MPTP+Example 3 10 mg/kg (G5), MPTP+Example 3 50 mg/kg (G6), and MPTP+Example 2 50 mg/kg (G7). The test drug was administered orally (PO) at 10 ml/kg once daily (QD) from Day 1 to Day 7. The acute MPTP model will be performed at 2-hour intervals in all groups except the control group. […] was administered as intraperitoneal (IP) injection for 4 doses. The control group was given the same amount of 0.9% saline. The Pole test was performed on day 4 (after training on day 2 and day 3). On day 7, all mice were euthanized, and their brains were harvested.
Mice were euthanized with Zoletil administration for collection of tissue samples for staining and analysis of histological sections. Blood was collected from the heart of the mouse and then the residual blood was perfused with phosphate-buffered saline (PBS). For half of the mice (n=6/group), the brain was incised into the striatum, substantia nigra, and the rest of the brain, flash-frozen, and stored at −80° C. The remaining mice (n=6/group) had their brains isolated and immobilized in 4% paraformaldehyde for 24 hours at 4° C., followed by 30% sucrose in phosphate-buffered saline (PBS) containing 0.02% sodium azide and stored at 4° C. for 3 days. Immunohistochemical sections were performed on brain samples embedded with optimal cutting temperature (OCT) compounds. Samples were sectioned to a thickness of 20 μm using Leica CM1950 (Leica Microsystems, Germany) and stored at 4° C. in a preservation solution until staining with antibodies.
After staining the striatum and substantia nigra of the brain and mounting them on microscopic slides, the slides were washed with PBS containing 0.3% Triton X-100 and peroxidase block for 15 min at room temperature. The slides were washed three times with PBS containing 0.3% Triton X-100 and then blocked at RT (room temperature) for 1 hour in a solution containing PBS, 5% normal goat serum, and 0.3% Triton X-100. Tyrosine hydroxylase antibody was diluted at 1:1000 and incubated overnight at 4° C. The slides were washed with PBS solution and incubated for 1 h at RT with secondary antibody. The slides were washed with PBS solution and the sections were placed in the solution to proceed with the DAB (diaminobenzidine) reaction.
The DAB response was monitored under a microscope for 2 to 3 minutes, and the slides were washed with PBS to stop the DAB response, dehydrated, and mounted using xylene. An Olympus microscope (Olympus, SZ61, BX51) was used to visualize TH stained images. The optical density (OD) value of positive TH staining was measured in the striatum and substantia nigra and analyzed using Image J software.

Compound: Cc1cc(F)c(C(=O)Nc2cccc(-n3nnc4c3CCCC4)n2)cc1-n1cnc(C2CC2)c1 [Example 3, 5-(4-cyclopropyl-1H-imidazole-1-yl)-2-fluoro-4-methyl-N-(6-(4,5,6,7-tetrahydro-1H-benzo[d][1,2,3]triazole-1-yl)pyridine-2-yl)benzamide]
- TH staining intensity of striatum [1]: significantly higher than that of group G2
- neurological score [2]: significantly reduced the neurological score of TG mice compared to G2
- viability at 0.1 µM [3]: 87.4%
- viability at 0.3 µM [3]: 87.6%
- viability at 1 µM [3]: 89.9%
- EC50 [4]: 23 nM
- TH levels in the striatum ([5]; 10 mg/kg PO QD): significantly higher than in the control group (G1)
- TH levels in the substantia nigra ([5]; 10 mg/kg PO QD): significantly higher than in the control group (G1)
- TH levels in the striatum ([5]; 50 mg/kg PO QD): significantly higher than in the control group (G1)
- TH levels in the substantia nigra ([5]; 50 mg/kg PO QD): significantly higher than in the control group (G1)
- TH levels in substantia nigra [5]: significant increase
- TH levels in striatum [5]: significant increase

Compound: Cc1cc(F)c(C(=O)Nc2cccc(-n3nnc4c3CCC4)n2)cc1-n1cnc(C2CC2)c1 [Example 2, 5-(4-cyclopropyl-1H-imidazole-1-yl)-N-(6-(5,6-dihydrocyclopenta[d][1,2,3]triazole-1 (4H)-yl)pyridine-2-yl)-2-fluoro-4-methylbenzamide]
- TH staining intensity of striatum [1]: significantly higher than that of group G2
- neurological score [2]: significantly reduced the neurological score of TG mice compared to G2
- viability at 0.1 µM [3]: 83.9%
- viability at 0.3 µM [3]: 91.7%
- viability at 1 µM [3]: 92.4%
- EC50 [4]: 64 nM
- TH levels in the substantia nigra ([5]; 50 mg/kg PO QD): significantly higher than in the control group (G1)
- TH levels in substantia nigra [5]: significant increase
- TH levels in striatum [5]: significant increase
